Experimental data taken from patent publication US9439430B2, “Method of controlling resistant harmful plants” (priority 2012, dated 2016).

Tests used:
BIDSU = test: Greenhouse test, post-emergence (PO) application, foliar effect; format: in vivo, Bidens subalternans; conditions: BIDSU sensitive, (A) 50, (B) 20, mixture 50 + 20 g of AS/ha, 3 weeks after application
Text: (§1) The 1:1 mixture of the two soil types was used specifically for cultivating small-seeded dicotyledonous weed since the standard field soil on its own tends to silt up, which may have an adverse effect on the emergence of small-seeded weeds. The resistances mentioned in the tables were confirmed beforehand in standard monitoring experiments. Nevertheless, the origins examined may have additional, hitherto unconfirmed resistances to various mechanisms of action.
(§2) The pots were then cultivated in a greenhouse (12-16 h light, temperature day 20-22° C., night 15-18° C.) until the time of application. The pots were treated at various BBCH stages of the seeds/plants on a laboratory track sprayer with spray liquors comprising the compositions according to the invention, mixtures of the prior art or the individual components. Application of the active compounds or active compound combinations and wetting agents formulated as WG, WP, EC or otherwise was carried out at the appropriate growth stages of the plants. The amount of water used for spray application was 100-600 l/ha. After the treatment, the plants were returned to the greenhouses and fertilized and watered as required. The pots were cultivated in a greenhouse (12-16 h light, temperature day 20-22° C., night 15-18° C.).
(§3) 3 weeks after the application, the foliar effect was evaluated on a scale of 0-100%:
(§4) 0%=no noticeable effect compared to untreated plants
(§5) 100%=full effect compared to untreated plants
(§6) The following abbreviations were used: • BBCH the BBCH code provides information about the morphological development stage of a plant. Officially, the abbreviation denotes the Biologische Bundesanstalt, Bundessortenamt and CHemische Industrie [Federal Biological Institute for Agriculture and Forestry, Federal Office for Crop Plant Varieties, Chemical Industry]. The range of BBCH 00-10 denotes the germination stages of the seeds until surface penetration. The range of BBCH 11-25 denotes the leaf development stages until stocking (corresponds to the number of tillers or side-shoots). • PE pre-emergence soil application; BBCH of the seeds/plants 00-10 • PO post-emergence application on the green parts of the plants; BBCH of the plants 11-25 • IU soil loamy silt—standard field soil • l/ha liters per hectare • S sensitive—the weed populations are sensitive to the active compounds tested • TSR target-site resistance. The weed populations comprise biotypes having a site-of-action-specific resistance, i.e. the binding site at the site of action is modified as a result of natural mutations in the gene sequence so that the active compounds are no longer able to bind, or bind in an unsatisfactory manner, and are therefore no longer able to act. • NTR non-target-site herbicide resistance; this is differentiated, inter alia, into EMR (Enhanced Metabolic Resistance) (the weed populations comprise biotypes having metabolic resistance, i.e. the plants are capable of metabolizing the active compounds more quickly via enzyme complexes, i.e. the active compounds are degraded more quickly in the plant), into reduced penetration into the plant, reduced translocation in the plant, accelerated excretion. […]

CHEAL = test: as above; format: in vivo, Chenopodium album; conditions: (A) 50, (B) 20, mixture 50 + 20 g of AS/ha, 3 weeks after application
Text: as §1, §2, §3, §4, §5, §6

BRODI = test: Greenhouse test, pre-emergence (PE) soil application; format: in vivo, Bromus diformis; set-up: key: % effect: 0 = no effect, 100 = full effect vs untreated
Text: as §1, §2, §3, §4, §5, §6

AMATA = test: as above; format: in vivo, Amaranthus rudis; set-up: key: % effect: 0 = no effect, 100 = full effect vs untreated
Text: as §1, §2, §3, §4, §5, §6

EPHHL = test: as above; format: in vivo, Euphorbia heterophylla; set-up: key: % effect: 0 = no effect, 100 = full effect vs untreated
Text: as §1, §2, §3, §4, §5, §6

APESV = test: as above; format: in vivo, Apera spica-venti; set-up: key: % effect: 0 = no effect, 100 = full effect vs untreated
Text: as §1, §2, §3, §4, §5, §6

ALOMY = test: as above; format: in vivo, Alopecurus myosuroides
Text: as §1, §2, §3, §4, §5, §6

LOLSS = test: as above; format: in vivo, Lolium spp.; set-up: key: % effect: 0 = no effect, 100 = full effect vs untreated plants
Text: as §1, §2, §3, §4, §5, §6

ERICA = test: as above; format: in vivo, Erigeron canadensis; set-up: key: % effect: 0 = no effect, 100 = full effect vs untreated
Text: as §1, §2, §3, §4, §5, §6

[1] = system: TTTTT (all resistant and sensitive biotypes); test: Greenhouse test, PE application, mean over all resistant and sensitive biotypes; format: in vivo; conditions: (A) 12.5, (B) 20, mixture 12.5 + 20 g of AS/ha; for TTTTT resistant mean (effect): mean of resistant biotypes (n = 16); for TTTTT sensitive mean (effect): mean of sensitive biotypes (n = 11)
Text: as §1, §2, §3, §4, §5, §6

[2] = CHEAL resistant - group B (TSR), C1 (NA) and G (NTR)
[3] = group (B) compound alone, 20 g of AS/ha

Row | Compound | foliar effect (BIDSU) | foliar effect (CHEAL; [2]) | foliar effect (CHEAL; CHEAL sensitive) | TTTTT resistant mean (effect) [1] | TTTTT sensitive mean (effect) [1] | effect on BRODI resistant - group A (TSR), B (NTR) and G (NTR) (BRODI; [3]) | effect on BRODI sensitive (BRODI; [3]) | effect on AMATA sensitive (AMATA; [3]) | effect on EPHHL resistant - group B (TSR) (EPHHL; [3]) | effect on EPHHL resistant - group B (TSR) and G (NTR) (EPHHL; [3]) | effect on EPHHL sensitive (EPHHL; [3]) | effect on APESV resistant - group B (TSR, NTR) and K1/3 (NA) (APESV; [3]) | effect on APESV sensitive (APESV; [3]) | effect on ALOMY sensitive (ALOMY; [3]) | effect on LOLSS resistant - group G (NTR) (LOLSS; [3]) | effect on LOLSS resistant group A (TSR, NTR), B (NTR) and C2 (NA) (LOLSS; [3]) | effect on LOLSS resistant group A (TSR, NTR), B (TSR, NTR) and C2 (NA) (LOLSS; [3]) | effect on LOLSS sensitive (LOLSS; [3]) | effect on ERICA resistant - group B (NA) and G (NTR) (ERICA; [3]) | effect on ERICA sensitive (ERICA; [3]) | also measured
1 | Cc1ccc2c(c1)[C@H](Nc1nc(N)nc(C(C)F)n1)[C@@H](C)C2 (stereo partly drawn) [(A), indaziflam] | 40% | 70% | 70% | 52% | 68% | – | – | – | – | – | – | – | – | – | – | – | – | – | – | – | effect on BRODI resistant - group A (TSR), B (NTR) and G (NTR) (BRODI; (A) alone, 12.5 g of AS/ha): 70; effect on BRODI sensitive (BRODI; (A) alone, 12.5 g of AS/ha): 75; effect on AMATA resistant - group B (TSR), C1 (TSR) (AMATA; (A) alone, 12.5 g of AS/ha): 70; effect on AMATA sensitive (AMATA; (A) alone, 12.5 g of AS/ha): 70; effect on EPHHL resistant - group B (TSR) (EPHHL; (A) alone, 12.5 g of AS/ha): 0; effect on EPHHL resistant - group B (TSR) and G (NTR) (EPHHL; (A) alone, 12.5 g of AS/ha): 0; effect on EPHHL sensitive (EPHHL; (A) alone, 12.5 g of AS/ha): 50; effect on APESV resistant - group B (TSR, NTR) and K1/3 (NA) (APESV; (A) alone, 12.5 g of AS/ha): 70; effect on APESV sensitive (APESV; (A) alone, 12.5 g of AS/ha): 90; effect on ALOMY sensitive (ALOMY; (A) alone, 12.5 g of AS/ha): 85; effect on LOLSS resistant - group G (NTR) (LOLSS; (A) alone, 12.5 g of AS/ha): 75; effect on LOLSS resistant group A (TSR, NTR), B (NTR) and C2 (NA) (LOLSS; (A) alone, 12.5 g of AS/ha): 50; effect on LOLSS resistant group A (TSR, NTR), B (TSR, NTR) and C2 (NA) (LOLSS; (A) alone, 12.5 g of AS/ha): 50; effect on LOLSS sensitive (LOLSS; (A) alone, 12.5 g of AS/ha): 80; effect on ERICA resistant - group B (NA) and G (NTR) (ERICA; (A) alone, 12.5 g of AS/ha): 60; effect on ERICA sensitive (ERICA; (A) alone, 12.5 g of AS/ha): 70
2 | COc1cc(OC)nc(NC(=O)NS(=O)(=O)c2ncccc2C(F)(F)F)n1 [(B1), flazasulfuron] | 70% | 70% | 80% | 32% | 75% | 70 | 80 | 70 | 0 | 20 | 40 | 40 | 85 | 100 | 80 | 70 | 70 | 70 | 0 | 70 | –
3 | COc1cc(OC)nc(NC(=O)NS(=O)(=O)c2cc(NC=O)ccc2C(=O)N(C)C)n1 [(B2), foramsulfuron] | 30% | 70% | 70% | 22% | 73% | 70 | 75 | 60 | 0 | 0 | 30 | 20 | 95 | 90 | 65 | 80 | 60 | 78 | 0 | 100 | –
4 | CCS(=O)(=O)c1cccnc1S(=O)(=O)NC(=O)Nc1nc(OC)cc(OC)n1 [(B3), rimsulfuron] | 70% | 70% | 80% | 24% | 75% | 70 | 80 | 70 | 0 | 0 | 30 | 35 | 93 | 100 | 60 | 50 | 50 | 70 | 0 | 70 | –
5 | CCOC(=O)c1ccccc1S(=O)(=O)NC(=O)Nc1nc(Cl)cc(OC)n1 [(B4), chlorimuron-ethyl] | 60% | 50% | 60% | 29% | 82% | 80 | 95 | 60 | 0 | 40 | 60 | 40 | 90 | 100 | 60 | 55 | 10 | 70 | 0 | 100 | effect on AMATA resistant - group B (TSR), C1 (TSR) (AMATA; [3]): 50
6 | COC(=O)c1csc(C)c1S(=O)(=O)NC(=O)n1nc(OC)n(C)c1=O [(B5), thiencarbazone-methyl] | 60% | 70% | 70% | 22% | 73% | 70 | 70 | 60 | 0 | 0 | 30 | 20 | 95 | 100 | 70 | 80 | 20 | 75 | 0 | 60 | effect on AMATA resistant - group B (TSR), C1 (TSR) (AMATA; [3]): 40
